Reference: patent publication US4073908A, “8-Amino-theophylline derivatives and therapeutic applications thereof” (Laboratoire le Brun S.A., priority 1975, dated 1978)

Columns and labels:
Acute toxicity in rats = format: in vivo; conditions: rat, in vivo, po, single administration
Text: (§1) Acute toxicity in mice by the sub-cutaneous and oral routes and in rats by the oral route was investigated by determination of the death rate following a single administration of increasing dosages.
(§2) Symbol > means that the LD50 is not attained at the dosage indicated.

Acute toxicity in mice = format: in vivo; conditions: mouse, in vivo, single administration
Text: as §1, §2

[1] = test system: aggressiveness subsequent to extended isolation in mice; assay: Anti-aggressive: aggressiveness subsequent to extended isolation, mice; format: in vivo; conditions: Mus musculus, oral, read-out: Oral AD50, isolated mice
Procedure: (§3) c. aggressiveness subsequent to extended isolation, in mice,
(§4) In all cases, the AD50 values were determined by the oral route.

[2] = test system: aggressiveness subsequent to electric shocks in rats; assay: Anti-aggressive: aggressiveness subsequent to electric shocks, rats; format: in vivo; conditions: Rattus norvegicus, oral, read-out: Oral AD50, electric shock in rats
Procedure: (§5) a. aggressiveness subsequent to electric shocks in mice and rats,
as §4

[3] = test system: aggressiveness subsequent to electric shocks in mice; assay: Anti-aggressive: aggressiveness subsequent to electric shocks, mice; format: in vivo; conditions: Mus musculus, oral, read-out: Oral AD50, electric shock in mice
Procedure: as §5, §4

[4] = test system: aggressiveness subsequent to apomorphine injection in rats; assay: Anti-aggressive: aggressiveness subsequent to apomorphine injection, rats; format: in vivo; conditions: Rattus norvegicus, oral, apomorphine injection 1 mg/kg, read-out: Oral AD50, apomorphine, in rats
Procedure: (§6) b. aggressiveness subsequent to apomorphine injection (1 mg/kg, in vivo) in rats,
as §4

rotarod test in mice = assay: Incapacitating effect: rotarod test; format: in vivo; conditions: compared with chlordiazepoxide
Text: a. Incapacitating effect: rotarod test in mice.

rats [5] = assay: Oral subacute toxicity in rats; format: in vivo; conditions: 1 month old rats, up to a daily dosage of 100 mg/kg
Text: Oral subacute toxicity in rats was investigated by determination of the death rate (if any), of the change in the weight of some organs, and by hematologic examinations, and the like.
Subacute toxicity in 1 month old rats, with compounds Nos. 11 and 18

[6] = test system: aggressiveness in mice and rats; assay: Anti-aggressive tests overall; format: in vivo; conditions: oral
Procedure: as §5, §6, §3
(§7) d. aggressiveness in mice-killing rats.
as §4

[7] = test system: cardiazol convulsions in mice; assay: Anti-convulsant effect with respect to cardiazol; format: in vivo; conditions: compared with chlordiazepoxide
Text: c. Anti-convulsant effect with respect to cardiazol in mice.

rats [8] = assay: Acute toxicity in rats; format: in vivo; conditions: single administration
Text: as §1, §2

mice = assay: Acute toxicity in mice; format: in vivo; conditions: single administration
Text: as §1, §2

learning in rats = assay: Effect on learning: Shuttle-box test; format: in vivo; conditions: compared with chlordiazepoxide
Text: f. Effect on learning in rats: Shuttle-box test.

[9] = test system: narcosis induced by pentobarbital in mice; assay: Effect on narcosis induced by pentobarbital; format: in vivo; conditions: compared with chlordiazepoxide
Text: (§8) d. Effect on narcosis induced by pentobarbital and ethanol in mice.

[10] = test system: stereotypy induced by apomorphine injection in rats; assay: Effect on stereotypy induced by apomorphine injection; format: in vivo
Text: e. Effect on stereotypy induced by apomorphine injection in rats.

catalepsy and ptosis = assay: Neuroleptic effects: catalepsy and ptosis; conditions: in vivo
[11] = test system: aggressiveness in mice-killing rats; assay: Anti-aggressive: aggressiveness in mice-killing rats; format: in vivo
Procedure: as §7, §4

[12] = test system: reserpine effect on temperature and ptosis; assay: Anti-reserpine effect on temperature and ptosis; format: in vivo; conditions: compared with Imipramine
Text: b. Anti-reserpine effect on temperature and ptosis.

[13] = test system: narcosis induced by ethanol in mice; assay: Effect on narcosis induced by ethanol; format: in vivo
Text: as §8

[14] = test system: bronchospasm induced by histamine injection in guinea-pigs; assay: Anti-histaminic: bronchospasm induced by histamine injection in guinea-pigs; format: in vivo; conditions: Cavia porcellus, oral, read-out: oral AD50, anti-histaminic activity
Procedure: This activity was determined according to the technique of the bronchospasm induced by histamine injection in guinea-pigs.

[15] = test system: carrage enin-induced edema in rats; assay: Anti-inflammatory: carrageenin-induced edema in rats; format: in vivo; conditions: oral route
Procedure: The technique used was that of the carrage enin-induced edema in rats (oral route). The dosage which inhibits this edema by a factor of 50% was evaluated by interpolation.

[16] = test system: cough induced by electric stimulation of the laryngeal nerve in cats; assay: Anti-tussive: cough induced by electric stimulation of the laryngeal nerve; format: in vivo
Text: 6. Anti-tussive activity against cough induced by electric stimulation of the laryngeal nerve in cats.

[17] = po, read-out: LD50, oral route, mice
[18] = sc, read-out: LD50, s.c. route, mice

SMILES | LD50 (Acute toxicity in rats) | LD50 (Acute toxicity in mice; [17]) | LD50 (Acute toxicity in mice; [18]) | further results
Cc1cccc(N2CCN(CCN3CCn4c3nc3c4c(=O)n(C)c(=O)n3C)CC2)c1 [Compound 1] | > 100 mg/kg | > 300 mg/kg | > 300 mg/kg | 
Cc1ccc(N2CCN(CCN3CCn4c3nc3c4c(=O)n(C)c(=O)n3C)CC2)cc1C [Compound 2] | > 100 mg/kg | > 300 mg/kg | > 300 mg/kg | 
COc1cccc(N2CCN(CCN3CCn4c3nc3c4c(=O)n(C)c(=O)n3C)CC2)c1 [Compound 3] | > 100 mg/kg | > 300 mg/kg | > 300 mg/kg | ED50 [1]: 25 mg/kg; ED50 [2]: 100 mg/kg; ED50 [3]: 30 mg/kg; ED50 [4]: 180 mg/kg
COc1ccc(N2CCN(CCN3CCn4c3nc3c4c(=O)n(C)c(=O)n3C)CC2)cc1 [Compound 4] | > 100 mg/kg | > 300 mg/kg | > 300 mg/kg | 
Cn1c(=O)c2c(nc3n2CCN3CCN2CCN(c3cccc(C(F)(F)F)c3)CC2)n(C)c1=O [Compound 5] | > 100 mg/kg | > 300 mg/kg | > 300 mg/kg | 
Cn1c(=O)c2c(nc3n2CCN3CCN2CCN(c3cccc(F)c3)CC2)n(C)c1=O [Compound 6] | > 100 mg/kg | > 300 mg/kg | > 300 mg/kg | 
Cn1c(=O)c2c(nc3n2CCN3CCN2CCN(c3ccc(F)cc3)CC2)n(C)c1=O [Compound 7] | > 100 mg/kg | > 300 mg/kg | > 300 mg/kg | 
Cn1c(=O)c2c(nc3n2CCN3CCN2CCN(c3cccc(Br)c3)CC2)n(C)c1=O [Compound 8] | > 100 mg/kg | > 300 mg/kg | > 300 mg/kg | 
Cn1c(=O)c2c(nc3n2CCN3CCN2CCN(c3cccc(I)c3)CC2)n(C)c1=O [Compound 9] | > 100 mg/kg | > 300 mg/kg | > 300 mg/kg | 
Cn1c(=O)c2c(nc3n2CCN3CCN2CCN(c3ccccc3Cl)CC2)n(C)c1=O [Compound 10] | > 100 mg/kg | > 300 mg/kg | > 300 mg/kg | 
Cn1c(=O)c2c(nc3n2CCN3CCN2CCN(c3cccc(Cl)c3)CC2)n(C)c1=O [Compound 11] |  |  | > 300 mg/kg | ED50 [1]: 10 mg/kg; ED50 [2]: 45 mg/kg; incapacitating effect (rotarod test in mice): does not, as the latter compound, exhibit incapacitating; death rate (fatal issue) (rats [5]): No fatal issue was noted; anti-aggressive activity (in words) [6]: in most cases, are superior to those of chlordiazepoxide in the anti-aggressive tests; anti-convulsant effect [7]: does not, as the latter compound, exhibit incapacitating, anti-convulsant; ED50 [3]: 30 mg/kg; LD50, oral route, rats (rats [8]): 1000 mg/kg; LD50, oral route, mice (mice): 450 mg/kg; ED50 [4]: 140 mg/kg; learning-delaying effect (learning in rats): does not, as the latter compound, exhibit incapacitating, anti-convulsant, pentobarbitalor ethanol-induced narcosis-potentiating, or learning-delaying effects; pentobarbital-induced narcosis-potentiating effect [9]: does not, as the latter compound, exhibit incapacitating, anti-convulsant, pentobarbitalor ethanol-induced narcosis-potentiating; apomorphinic anti-stereotypy [10]: absence of apomorphinic anti-stereotypy; catalepsy (catalepsy and ptosis): absence of apomorphinic anti-stereotypy, of catalepsy; ptosis (catalepsy and ptosis): absence of apomorphinic anti-stereotypy, of catalepsy and of ptosis; ED50 ([11]; Rattus norvegicus, oral, read-out: Oral AD50, mice-killing rats): 50 mg/kg; activity in the mice-killing test in rats relative to Imipramine ([11]; compared with Imipramine): Superior to Imipramine in the mice-killing test in rats; anti-reserpinic effect [12]: absence of anti-reserpinic effect; ethanol-induced narcosis-potentiating effect [13]: does not, as the latter compound, exhibit incapacitating, anti-convulsant, pentobarbitalor ethanol-induced narcosis-potentiating
Cn1c(=O)c2c(nc3n2CCN3CCN2CCN(c3ccc(Cl)cc3)CC2)n(C)c1=O [Compound 12] | > 100 mg/kg | 120 mg/kg | > 300 mg/kg | ED50 [14]: 1.5 mg/kg; anti-inflammatory activity (in words) [15]: the more active, the activities being substantially equivalent to those of phenyl butazone; anti-tussive activity (in words) [16]: most active compound investigated
Cn1c(=O)c2c(nc3n2CCN3CCN2CCN(c3cccc(Cl)c3Cl)CC2)n(C)c1=O [Compound 13] | > 100 mg/kg | > 300 mg/kg | > 300 mg/kg | 
Cn1c(=O)c2c(nc3n2CCN3CCN2CCN(c3ccc(Cl)c(Cl)c3)CC2)n(C)c1=O [Compound 14] | > 100 mg/kg | > 300 mg/kg | > 300 mg/kg | 
Cn1c(=O)c2c(nc3n2CCN3CCN2CCN(c3cc(Cl)cc(Cl)c3)CC2)n(C)c1=O [Compound 15] | > 100 mg/kg | > 300 mg/kg | > 300 mg/kg | 
CC(CN1CCn2c1nc1c2c(=O)n(C)c(=O)n1C)N1CCN(c2cccc(Cl)c2)CC1 (stereo not shown) [Compound 16] | > 100 mg/kg | > 300 mg/kg | > 300 mg/kg | 
Cn1c(=O)c2c(nc3n2CCN3CCCN2CCN(c3cccc(Cl)c3)CC2)n(C)c1=O [Compound 17] | > 100 mg/kg | > 300 mg/kg | > 300 mg/kg | 
CC(CN1CCCn2c1nc1c2c(=O)n(C)c(=O)n1C)N1CCN(c2cccc(Cl)c2)CC1 (stereo not shown) [Compound 19] | > 100 mg/kg | > 300 mg/kg | > 300 mg/kg | 
Cn1c(=O)c2c(nc3n2CCCN3CCCN2CCN(c3cccc(Cl)c3)CC2)n(C)c1=O [Compound 20] | > 100 mg/kg | > 300 mg/kg | > 300 mg/kg | anti-inflammatory activity (in words) [15]: the more active, the activities being substantially equivalent to those of phenyl butazone
CC1CN(CCN2CCn3c2nc2c3c(=O)n(C)c(=O)n2C)CCN1c1cccc(Cl)c1 (stereo not shown) [Compound 21] | > 100 mg/kg | > 300 mg/kg | > 300 mg/kg | 
CC1CN(CCN2CCn3c2nc2c3c(=O)n(C)c(=O)n2C)CCN1c1ccc(Cl)cc1 (stereo not shown) [Compound 22] | > 100 mg/kg | > 300 mg/kg | > 300 mg/kg | 
CCC1CN(CCN2CCn3c2nc2c3c(=O)n(C)c(=O)n2C)CCN1c1cccc(Cl)c1 (stereo not shown) [Compound 24] | > 100 mg/kg | 300 mg/kg | > 300 mg/kg | 
Cn1c(=O)c2c(nc3n2CCN3CCN2CCN(c3cccc(Cl)c3)C(COc3ccccc3)C2)n(C)c1=O (stereo not shown) [Compound 25] | > 100 mg/kg | > 300 mg/kg | > 300 mg/kg | 
Cn1c(=O)c2c(nc3n2CCCCN3CCN2CCN(c3cccc(Cl)c3)CC2)n(C)c1=O [Compound 26] | > 100 mg/kg | > 300 mg/kg | > 300 mg/kg | 
Cn1c(=O)c2c(nc3n2CCCCN3CCCN2CCN(c3cccc(Cl)c3)CC2)n(C)c1=O [Compound 27] | > 100 mg/kg | > 300 mg/kg | > 300 mg/kg | 
Cn1c(=O)c2c(nc3n2CCCN3CCCN2CCN(c3ccc(Cl)cc3)CC2)n(C)c1=O [Compound 28] | > 100 mg/kg | > 300 mg/kg | > 300 mg/kg | 
Cn1c(=O)c2c(nc3n2CCN3CCCCCCN2CCN(c3cccc(Cl)c3)CC2)n(C)c1=O [Compound 29] | > 100 mg/kg | > 300 mg/kg | > 300 mg/kg | 
Cn1c(=O)c2c(nc3n2CCCN3CCCCCCN2CCN(c3cccc(Cl)c3)CC2)n(C)c1=O [Compound 30] | > 100 mg/kg | > 300 mg/kg | > 300 mg/kg | 
Cn1c(=O)c2c(nc3n2CCN3CCN2CCN(c3cccc(Cl)c3)CC2)n(C)c1=O [Compound 31] |  |  |  | LD50, oral route, rats (rats [8]): > 100 mg/kg; LD50, oral route, mice (mice): 150 mg/kg; LD50, s.c. route, mice (mice; s.c. route): > 300 mg/kg
